Consider ten molecules from patent publication US7534793B2, “Aminopiperidine quinolines and their azaisosteric analogues with antibacterial activity” (priority 2003, dated 2009).

Counter-ions that a name gives are not always drawn. Like-named read-outs stand apart in the source and are kept apart here.

The assay can be described thus: MIC of test compounds against various organisms. The assay is classed as cell-based.
Where [1] appears, read: against one or more of the above range of gram positive and gram negative bacteria, read-out: MIC.

One may read the MIC as the lowest concentration that inhibits growth of the organism. For the molecule `COc1ccc2nccc([C@@H](O)CN3CCC(NCc4cc5cc(Br)ccc5[nH]4)CC3)c2c1` [Example 9, (R)-2-{4-[(5-Bromo-1 H-indol-2-ylmethyl)amino]-piperidin-1-yl}-1-(6-methoxy-quinolin-4-yl)-ethanol, dioxalate], the MIC under setting [1] was at most 32 mg/L.
Still for that read-out and setting: as for `COc1ccc2nc(CNC3CCN(C[C@H](O)c4ccnc5ccc(OC)cc45)CC3)sc2c1` [Example 11, (R)-2-{4-[(6-Methoxy-benzothiazol-2-ylmethyl)-amino]-piperidin-1-yl}-1-(6-methoxy-quinolin-4-yl)-ethanol, dioxalate], the figure is at most 32 mg/L.
On the same count and under the same terms, the same measure for `COc1ccc2nccc([C@@H](O)CN3CCC(NCc4nc5cc(F)c(F)cc5[nH]4)CC3)c2c1.O=C(O)C(=O)O.O=C(O)C(=O)O` [Example 14, (R)-2-{4-[(5,6-Difluoro-1H-benzimidazol-2-ylmethyl)-amino]-piperidin-1-yl}-1-(6-methoxyquinolin-4-yl)-ethanol, dioxalate]: at most 2 mg/L.
`COc1ccc2nccc(NC(=O)N3CCC(NCc4nc5c(F)cc(F)cc5[nH]4)CC3)c2n1` [Example 403, 4-[(4,6-Difluoro-1H-benzimidazol-2-ylmethyl)-amino]-piperidine-1-carboxylic acid (6-methoxy-[1,5]naphthyridin-4-yl)-amide, oxalate]: the MIC under setting [1] was at most 2 mg/L.
On the same count and under the same terms, the same measure for `COc1ccc2nccc(NC(=O)N3CCC(NCc4cc5ccccc5[nH]4)CC3)c2c1` [Example 406, 4-[(1H-Indol-2-ylmethyl)-amino]-piperidine-1-carboxylic acid (6-methoxy-quinolin-4-yl)amide, oxalate]: at most 2 mg/L; for `COc1cc(F)c2nccc(NC(=O)N3CCC(NCc4cnc5c(O)cccc5n4)CC3)c2c1F` [Example 620, 4-[(5-Hydroxy-quinoxalin-2-ylmethyl)amino]-piperidine-1-carboxylic acid (5,8-difluoro-6-methoxy-quinolin-4-yl)-amide oxalate]: at most 32 mg/L.
With `COc1ccc2nccc([C@@H](O)CN3CCC(NCc4cc5cccc(O)c5c(=O)[nH]4)CC3)c2c1` [Example 622, (R)-2-{4-[(8-Hydroxy-1-oxo-1,2-dihydro-isoquinolin-3-ylmethyl)-amino]-piperidin-1-yl}-1-(6-methoxyquinolin-4-yl)-ethanol trihydrochloride], the minimal inhibitory concentration (MIC) was at most 0.125 mg/L.
On to `COc1ccc2nccc([C@@H](O)CN3CCC(NCc4cnc5scnc5c4)CC3)c2c1` [Example 623, (R)-1-(6-Methoxy-quinolin-4-yl)-2-{4-[(thiazolo[5,4-b]pyridin-6-ylmethyl)amino]-piperidin-1-yl}-ethanol dioxalate], for which the MIC under setting [1] is at most 2 mg/L.
For `COc1ccc2nccc([C@@H](O)CN3CCC(NCc4cc5cccnc5n4CC(=O)O)CC3)c2c1` [Example 624, (R)-1-(6-Methoxy-quinolin-4-yl)-2-{4-[(1-carboxymethyl-1H-pyrrolo[2,3-b]pyridine-2-ylmethyl)-amino]-piperidin-1-yl}-ethanol trihydrochloride], the minimal inhibitory concentration (MIC) is at most 32 mg/L.
The same measure, in the same setting: the same measure for `COc1ccc2nccc([C@@H](O)CN3CCC(N(CC(=O)O)Cc4cc5cccnc5n4CC(=O)O)CC3)c2c1` [Example 625, (R)-1-(6-Methoxy-quinolin-4-yl)-2-{4-[carboxymethyl-(1-carboxymethyl-1H-pyrrolo[2,3-b]pyridine-2-ylmethyl)-amino]-piperidin-1-yl}-ethanol dihydrochloride]: at most 32 mg/L.
